Test results published in the supplement of paper PMC13207355.

Tests used:
Details in all cases: exposure time: 72 h
E13 [1] = patient-derived glioblastoma stem cells of classical subtype; assay: surviving fraction (nuclei count normalised to DMSO); higher = more cells surviving (less toxic)
E21 [2] = patient-derived glioblastoma stem cells of mesenchymal subtype; assay: as above
E28 [3] = patient-derived glioblastoma stem cells of classical subtype; assay: as above
E31 [4] = patient-derived glioblastoma stem cells of proneural subtype; assay: as above
E34 [5] = patient-derived glioblastoma stem cells of proneural subtype; assay: as above
E57 [6] = patient-derived glioblastoma stem cells of mesenchymal subtype; assay: as above
FT3469 [7] = normal neural stem cell line; assay: as above
E13 [8] = assay: phenotypic distance (Euclidean, principal components) from DMSO controls (arbitrary units); higher = stronger morphological change
E21 [9] = assay: as above
E28 [10] = assay: as above
E31 [11] = assay: as above
E34 [12] = assay: as above
E57 [13] = assay: as above
FT3469 [14] = assay: as above
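Throughout, for phenotypic distance (Euclidean, principal components) from DMSO controls: cell Painting imaging in 384-well plates, CellProfiler features reduced to at least 20 principal components, Euclidean distance versus same-plate DMSO vehicle wells (0.1% v/v), median over six images per well.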
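Throughout, for surviving fraction (nuclei count normalised to DMSO): nuclei counted by high-content imaging of Hoechst-stained cells in laminin-coated 384-well plates, relative to 0.1% DMSO vehicle wells, with staurosporine as cell-death control.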

Nc1nc(Cl)nc2c1ncn2[C@@H]1O[C@H](CO)[C@@H](O)[C@@H]1F [Clofarabine] gave a surviving fraction (E13 [1]; 4.1 nM) of 0.852, a surviving fraction (E13 [1]; 12.3 nM) of 0.979 and a surviving fraction (E13 [1]; 37 nM) of 0.86. For the same molecule, the surviving fraction (E13 [1]; 111.1 nM) was 0.941, the surviving fraction (E13 [1]; 333.3 nM) was 0.913 and the surviving fraction (E13 [1]; 1000 nM) was 0.789. It also gave a surviving fraction (E13 [1]; 3000 nM) of 0.318, a surviving fraction (E21 [2]; 4.1 nM) of 0.962 and a surviving fraction (E21 [2]; 12.3 nM) of 0.885. The surviving fraction (E21 [2]; 37 nM) was 0.825, the surviving fraction (E21 [2]; 111.1 nM) was 0.771 and the surviving fraction (E21 [2]; 333.3 nM) was 0.343. The surviving fraction (E21 [2]; 1000 nM) was 0.118, the surviving fraction (E21 [2]; 3000 nM) was 0.116 and the surviving fraction (E28 [3]; 4.1 nM) was 0.864. It also gave a surviving fraction (E28 [3]; 12.3 nM) of 0.907, a surviving fraction (E28 [3]; 37 nM) of 0.515 and a surviving fraction (E28 [3]; 111.1 nM) of 0.559. For the same molecule, the surviving fraction (E28 [3]; 333.3 nM) was 0.341, the surviving fraction (E28 [3]; 1000 nM) was 0.366 and the surviving fraction (E28 [3]; 3000 nM) was 0.3. For the same molecule, the surviving fraction (E31 [4]; 4.1 nM) was 0.754, the surviving fraction (E31 [4]; 12.3 nM) was 0.892 and the surviving fraction (E31 [4]; 37 nM) was 0.64. It also gave a surviving fraction (E31 [4]; 111.1 nM) of 0.205, a surviving fraction (E31 [4]; 333.3 nM) of 0.142 and a surviving fraction (E31 [4]; 1000 nM) of 0.236. The surviving fraction (E31 [4]; 3000 nM) was 0.206, the surviving fraction (E34 [5]; 4.1 nM) was 0.858 and the surviving fraction (E34 [5]; 12.3 nM) was 1.04. For the same molecule, the surviving fraction (E34 [5]; 37 nM) was 0.894, the surviving fraction (E34 [5]; 111.1 nM) was 0.777 and the surviving fraction (E34 [5]; 333.3 nM) was 0.558. The surviving fraction (E34 [5]; 1000 nM) was 0.495, the surviving fraction (E34 [5]; 3000 nM) was 0.541 and the surviving fraction (E57 [6]; 4.1 nM) was 0.939. For the same molecule, the surviving fraction (E57 [6]; 12.3 nM) was 0.847, the surviving fraction (E57 [6]; 37 nM) was 0.741 and the surviving fraction (E57 [6]; 111.1 nM) was 0.402. For the same molecule, the surviving fraction (E57 [6]; 333.3 nM) was 0.186, the surviving fraction (E57 [6]; 1000 nM) was 0.168 and the surviving fraction (E57 [6]; 3000 nM) was 0.165. The surviving fraction (FT3469 [7]; 4.1 nM) was 0.827, the surviving fraction (FT3469 [7]; 12.3 nM) was 0.915 and the surviving fraction (FT3469 [7]; 37 nM) was 0.875. The surviving fraction (FT3469 [7]; 111.1 nM) was 0.79, the surviving fraction (FT3469 [7]; 333.3 nM) was 0.702 and the surviving fraction (FT3469 [7]; 1000 nM) was 0.497. For the same molecule, the surviving fraction (FT3469 [7]; 3000 nM) was 0.428, the phenotypic distance (E13 [8]; 4.1 nM) was 0.623 and the phenotypic distance (E13 [8]; 12.3 nM) was 2.78. For the same molecule, the phenotypic distance (E13 [8]; 37 nM) was 0.684, the phenotypic distance (E13 [8]; 111.1 nM) was 0.632 and the phenotypic distance (E13 [8]; 333.3 nM) was 0.616. It also gave a phenotypic distance (E13 [8]; 1000 nM) of 1.66, a phenotypic distance (E13 [8]; 3000 nM) of 5.91 and a phenotypic distance (E21 [9]; 4.1 nM) of 0.844. The phenotypic distance (E21 [9]; 12.3 nM) was 1.11, the phenotypic distance (E21 [9]; 37 nM) was 1.36 and the phenotypic distance (E21 [9]; 111.1 nM) was 2.15. For the same molecule, the phenotypic distance (E21 [9]; 333.3 nM) was 4.37, the phenotypic distance (E21 [9]; 1000 nM) was 4.92 and the phenotypic distance (E21 [9]; 3000 nM) was 4.35. It also gave a phenotypic distance (E28 [10]; 4.1 nM) of 1.24, a phenotypic distance (E28 [10]; 12.3 nM) of 1.42 and a phenotypic distance (E28 [10]; 37 nM) of 1.73. The phenotypic distance (E28 [10]; 111.1 nM) was 2.31, the phenotypic distance (E28 [10]; 333.3 nM) was 3.06 and the phenotypic distance (E28 [10]; 1000 nM) was 3.17. The phenotypic distance (E28 [10]; 3000 nM) was 3.21, the phenotypic distance (E31 [11]; 4.1 nM) was 1.08 and the phenotypic distance (E31 [11]; 12.3 nM) was 1.33. For the same molecule, the phenotypic distance (E31 [11]; 37 nM) was 1.67, the phenotypic distance (E31 [11]; 111.1 nM) was 2.85 and the phenotypic distance (E31 [11]; 333.3 nM) was 3.28. The phenotypic distance (E31 [11]; 1000 nM) was 2.52, the phenotypic distance (E31 [11]; 3000 nM) was 2.66 and the phenotypic distance (E34 [12]; 4.1 nM) was 0.795. The phenotypic distance (E34 [12]; 12.3 nM) was 0.848, the phenotypic distance (E34 [12]; 37 nM) was 0.943 and the phenotypic distance (E34 [12]; 111.1 nM) was 2.17. It also gave a phenotypic distance (E34 [12]; 333.3 nM) of 3.94, a phenotypic distance (E34 [12]; 1000 nM) of 3.25 and a phenotypic distance (E34 [12]; 3000 nM) of 3.42. The phenotypic distance (E57 [13]; 4.1 nM) was 0.635, the phenotypic distance (E57 [13]; 12.3 nM) was 1.15 and the phenotypic distance (E57 [13]; 37 nM) was 2.09. For the same molecule, the phenotypic distance (E57 [13]; 111.1 nM) was 5.48, the phenotypic distance (E57 [13]; 333.3 nM) was 5.92 and the phenotypic distance (E57 [13]; 1000 nM) was 6.82. It also gave a phenotypic distance (E57 [13]; 3000 nM) of 6.53, a phenotypic distance (FT3469 [14]; 4.1 nM) of 0.724 and a phenotypic distance (FT3469 [14]; 12.3 nM) of 0.807. For the same molecule, the phenotypic distance (FT3469 [14]; 37 nM) was 0.917, the phenotypic distance (FT3469 [14]; 111.1 nM) was 1.95 and the phenotypic distance (FT3469 [14]; 333.3 nM) was 2.04. It also gave a phenotypic distance (FT3469 [14]; 1000 nM) of 1.6 and a phenotypic distance (FT3469 [14]; 3000 nM) of 2.19.
